Laboratory results from paper PMC3166236 (Journal of medicinal chemistry, 2011).

Assays:
KB cells = conditions: human
in vitro = conditions: human
[1] = Enzymatic stability in rat intestinal homogenate pH 6.5 at 37 °C; conditions: Sprague-Dawley, pH 6.5, Half-lives, rat intestinal homogenate pH 6.5, 37 °C
[2] = in vivo murine model; relative to 2 or its cyclic form 4; cited from earlier work
[3] = parent (S)-HPMPA; cited from earlier work
[4] = test system: Vaccinia virus strain Copenhagen; assay: microbe, parasite or virus in culture; assay type: cell-based; conditions: Orthopoxvirus vaccinia, read-out: Antiviral Activity IC50 Vaccinia
Towne strain of HCMV = assay: microbe, parasite or virus in culture; assay type: cell-based, human cytomegalovirus; conditions: Human betaherpesvirus 5, read-out: Antiviral Activity IC50 HCMV
hPEPT1 = hPEPT1 expressed in the model system; cited from earlier work
[5] = t1/2 Intestinal Homogenate pH 6.5, Rp isomer
[6] = t1/2 Intestinal Homogenate pH 6.5, Sp isomer

Row | SMILES | IC50 (in vitro) | half-life at 0.5 mg/ml [1, 5] | half-life at 0.5 mg/ml [1, 6] | further results
1 | CC(C)OC(=O)[C@@H](N)Cc1ccc(OP2(=O)CO[C@@H](Cn3ccc(N)nc3=O)CO2)cc1 (mixture of isomers) [8´, Isopropyl O-[(5S)-5-[(4-amino-2-oxopyrimidin-1(2H)-yl)methyl]-2-oxido-1,4,2-dioxaphosphinan-2-yl]-(L)-tyrosinate] |  |  |  | IC50 (KB cells): > 100 µM
2 | CC(C)CNC(=O)[C@@H](N)Cc1ccc(OP2(=O)CO[C@@H](Cn3cnc4c(N)ncnc43)CO2)cc1 (mixture of isomers) [11´, O-[(5S)-5-[(6-Amino-9H-purin-9-yl)methyl]-2-oxido-1,4,2-dioxaphosphinan-2-yl]-N-(2-methylpropyl)-(L)-tyrosinamide] |  |  |  | IC50 (KB cells): > 100 µM
3 | CC(C)OC(=O)[C@@H](N)Cc1ccc(OP2(=O)CO[C@@H](Cn3ccc(N)nc3=O)CO2)cc1 (mixture of isomers) [Compound 8, Isopropyl O-[(5S)-5-[(4-amino-2-oxopyrimidin-1(2H)-yl)methyl]-2-oxido-1,4,2-dioxaphosphinan-2-yl]-(L)-tyrosinate] | > 100 µM | < 0.5 h | < 0.5 h | 
4 | CC(C)CNC(=O)[C@@H](N)Cc1ccc(OP2(=O)CO[C@@H](Cn3cnc4c(N)ncnc43)CO2)cc1 (mixture of isomers) [Compound 11, O-[(5S)-5-[(6-Amino-9H-purin-9-yl)methyl]-2-oxido-1,4,2-dioxaphosphinan-2-yl]-N-(2-methylpropyl)-(L)-tyrosinamide] | > 100 µM | 12.8 h | 1.9 h | half-life (Stability in rat plasma; Rp diastereomer): 3.55 h; half-life (Stability in rat plasma; Sp diastereomer): 0.383 h
5 | COC(=O)C(COP1(=O)COC(Cn2ccc(N)nc2=O)CO1)NC(=O)C(N)C(C)C (stereo not drawn) [(L)-Val-(L)-Ser-OMe cHPMPC] |  |  |  | increase in oral bioavailability of total 2 species [2]: eight-fold
6 | Nc1ncnc2c1ncn2C[C@@H](CO)OCP(=O)(O)O [Compound 1, (S)-9-[3-hydroxy-2-(phosphonomethoxy)propyl]adenine, reference compound] | > 100 µM |  |  | oral bioavailability of the parent compound [3]: < 5%
7 | Nc1ccn(C[C@@H](CO)OCP(=O)(O)O)c(=O)n1 [Compound 2, 1-(S)-[3-hydroxy-2-(phosphonomethoxy)propyl]cytosine, reference compound] | > 100 µM |  |  | IC50 [4]: 20 µM
8 | Nc1ncnc2c1ncn2C[C@H]1COP(=O)(O)CO1 [Compound 3, (5S)-5-[(6-Amino-9H-purin-9-yl)methyl]-1,4,2-dioxaphosphinan-2-ol 2-oxide, reference compound] | > 100 µM |  |  | 
9 | Nc1ccn(C[C@H]2COP(=O)(O)CO2)c(=O)n1 [Compound 4] | > 100 µM |  |  | IC50 [4]: 40 µM; IC50 (Towne strain of HCMV): 0.25 µM
10 | COC(=O)[C@@H](N)Cc1ccc(OP2(=O)CO[C@@H](Cn3ccc(N)nc3=O)CO2)cc1 (stereo partly drawn) [Compound 6, Methyl O-[(5S)-5-[(4-amino-2-oxopyrimidin-1(2H)-yl)methyl]-2-oxido-1,4,2-dioxaphosphinan-2-yl]-(L)-tyrosinate] | > 100 µM | < 0.5 h | < 0.5 h | 
11 | COC(=O)[C@H](N)Cc1ccc(OP2(=O)CO[C@@H](Cn3ccc(N)nc3=O)CO2)cc1 (stereo partly drawn) [Compound 7, Methyl O-[(5S)-5-[(4-amino-2-oxopyrimidin-1(2H)-yl)methyl]-2-oxido-1,4,2-dioxaphosphinan-2-yl]-(D)-tyrosinate] | > 100 µM | 3.5 h | 1.2 h | 
12 | CC(C)(C)NC(=O)[C@H](N)Cc1ccc(OP2(=O)CO[C@@H](Cn3ccc(N)nc3=O)CO2)cc1 (stereo partly drawn) [Compound 9, O-[(5S)-5-[(4-Amino-2-oxopyrimidin-1(2H)-yl)methyl]-2-oxido-1,4,2-dioxaphosphinan-2-yl]-N-tert-butyl-(D)-tyrosinamide] | > 100 µM | 28.9 h | 3.85 h | 
13 | COC(=O)[C@@H](N)Cc1ccc(OP2(=O)CO[C@@H](Cn3cnc4c(N)ncnc43)CO2)cc1 (stereo partly drawn) [Compound 10, Methyl O-[(5S)-5-[(6-amino-9H-purin-9-yl)methyl]-2-oxido-1,4,2-dioxaphosphinan-2-yl]-(L)-tyrosinate] | > 100 µM | < 0.5 h | < 0.5 h | 
14 | COC(=O)[C@H](Cc1ccc(OP2(=O)CO[C@@H](Cn3cnc4c(N)ncnc43)CO2)cc1)NC(=O)[C@@H](N)C(C)C (stereo partly drawn) [Compound 13, Methyl (L)-valyl-O-[(5S)-5-[(6-amino-9H-purin-9-yl)methyl]-2-oxido-1,4,2-dioxaphosphinan-2-yl]-(L)-tyrosinate] | > 100 µM | < 0.5 h | < 0.5 h | 
15 | CC(C)CNC(=O)[C@@H](N)Cc1ccc(OP(=O)(O)CO[C@H](CO)Cn2cnc3c(N)ncnc32)cc1 [Compound 28, O-[([[(2S)-1-(6-Amino-9H-purin-9-yl)-3-hydroxypropan-2-yl]oxy]methyl)(hydroxy)phosphoryl]-N-(2-methylpropyl)-(L)-tyrosinamide] | > 100 µM |  |  | 
16 | COC(=O)[C@H](COP1(=O)CO[C@@H](Cn2ccc(N)nc2=O)CO1)NC(=O)[C@@H](N)C(C)C (stereo partly drawn) [Val-Ser-OMe cHPMPC] |  |  |  | binding and transport by hPEPT1 (hPEPT1): tightly bound but not transported
